The values below are quoted from earlier work in patent US6441047B2, “Combination therapy for treating glaucoma” (Alcon Manufacturing Ltd.., priority 1995, dated 2002).

The conditions of data set [1]: Drugs of the Future, 1994, 19, 905-909.
For data set [2] the following is noted: Drugs of the Future, 1994, 19, 905-909. The source holds these as a separate data set.
For data set [3] the following is noted: Drugs of the Future, 1994, 19, 905-909. This is another data set of the same source.

Take `OC(CN1CCC(Cc2ccc(F)cc2)CC1)c1ccc(Cl)cc1` (stereo not drawn) [eliprodil]: the blood-brain barrier penetration result in data set [1] is listed as “effectively crosses the blood-brain barrier”. For the same compound, in data set [2], the “incidence of adverse effects upon administration” value is reported as “low incidence of adverse effects”. Besides, in data set [3], the oral bioavailability entry was “orally bioavailable”.
